Experimental data reported in patent US10844051B2, “Substituted oxazoles for the treatment of cancer” (THE ROYAL INSTITUTION FOR THE ADCANCEMENT OF …, priority 2015, dated 2020).
Entries after “also recorded” stand apart in the source; their conditions may differ.

What was measured:
[1] = molecular target: T1, ERG (Homo sapiens, UniProt P11308); experiment: ERG-dependent reporter assay in HEK293 cells; type: cell-based; set-up: expressed in transfected cells; host or cells: HEK293; details: PUx3-Luc reporter, 48 hours, designated doses
T1 sequence (P11308 1-486 isoform P11308-3): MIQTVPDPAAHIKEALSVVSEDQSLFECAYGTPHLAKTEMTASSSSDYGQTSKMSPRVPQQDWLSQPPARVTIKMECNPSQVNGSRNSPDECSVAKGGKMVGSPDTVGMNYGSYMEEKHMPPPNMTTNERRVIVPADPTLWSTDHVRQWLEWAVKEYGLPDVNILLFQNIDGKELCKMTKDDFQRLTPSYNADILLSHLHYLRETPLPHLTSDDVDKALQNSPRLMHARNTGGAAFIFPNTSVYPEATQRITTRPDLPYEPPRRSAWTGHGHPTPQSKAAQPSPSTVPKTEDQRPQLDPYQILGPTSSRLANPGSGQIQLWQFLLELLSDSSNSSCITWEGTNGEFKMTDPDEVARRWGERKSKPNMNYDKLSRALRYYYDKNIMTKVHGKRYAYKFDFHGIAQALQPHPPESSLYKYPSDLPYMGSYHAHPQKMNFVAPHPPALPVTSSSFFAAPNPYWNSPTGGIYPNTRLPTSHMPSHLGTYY
Experimental: (§1) HEK293 cells were transiently transfected with empty vector (for the NT) or ERG-expressing plasmid as well as pRL-TK (internal control) and PUx3-Luc reporter. Cells were then exposed to DMSO vehicle or compounds at designated doses for 48 hours. Experiments were done in triplicate.

[2] = system: C4-2B cells; experiment: Matrigel invasion assay, C4-2B; type: cell-based; details: 48 hours
Experimental: (§2) Invasion assay was performed using (8.0 μm pore size) BD Matrigel Invasion chambers in 24-well plate (Catalog: 354480, BD Biosc.). 750 μL medium (with 20% FBS) was added into lower chamber of each well (DMEM for VCaP, RPMI 1640 for C4-2B and DU145). Next, 5×10^5 VCaP or 5×10^5 C4-2B or 1×10^4DU145 cells in 500 μL medium (with 0.5% FBS) were seeded into the upper chamber of each well. DMSO vehicle or compounds in DMSO solution were added into upper chamber to reach the designated doses. After 48 hours incubation, the invasive cells attached to the lower surface of the membrane insert were fixed in 10% formalin at room temperature for 30 minutes and stained with 0.05% crystal violet. The number of invasive cells was then counted under a microscope. Invasion experiments were performed in duplicate. ***p<0.0001 when compared with vehicle control.

[3] = molecular target: T1, ERG; experiment: Surface Plasmon Resonance (SPR) analysis on amine-coupled ERG; type: binding
Experimental: Steady-state kinetics of compound 648, YK-4-279 (positive control) and bicalutamide (Bic) (negative control) over amine-coupled ERG surfaces with 50 μM injection (25 μL/min×120 sec association+120 sec dissociation). High-density ERG (6000 RU) and reference surface (no ERG) were amine-coupled to CM5 sensors using BIACORE 3000 instrumentation. YK-4-279 is a known ERG inhibitor. Bic is an antagonist of the androgen receptor.
FIG. 1.5b) Preliminary SPR data to characterize binding affinity of compound 648. Rapid on/off kinetics for compound 648 when titrated over amine-coupled ERG surfaces at 0, 10, 20, 30, 40, and 50 μM (25 μL/min×120 sec association+120 sec dissociation).

[4] = molecular target: T2, ETV1 (Homo sapiens, UniProt P50549); experiment: ETV1-dependent reporter assay in HEK293 cells; type: cell-based; details: 48 hours
T2 construct: expressed in transfected cells; host or cells: HEK293
T2 sequence (P50549 1-477): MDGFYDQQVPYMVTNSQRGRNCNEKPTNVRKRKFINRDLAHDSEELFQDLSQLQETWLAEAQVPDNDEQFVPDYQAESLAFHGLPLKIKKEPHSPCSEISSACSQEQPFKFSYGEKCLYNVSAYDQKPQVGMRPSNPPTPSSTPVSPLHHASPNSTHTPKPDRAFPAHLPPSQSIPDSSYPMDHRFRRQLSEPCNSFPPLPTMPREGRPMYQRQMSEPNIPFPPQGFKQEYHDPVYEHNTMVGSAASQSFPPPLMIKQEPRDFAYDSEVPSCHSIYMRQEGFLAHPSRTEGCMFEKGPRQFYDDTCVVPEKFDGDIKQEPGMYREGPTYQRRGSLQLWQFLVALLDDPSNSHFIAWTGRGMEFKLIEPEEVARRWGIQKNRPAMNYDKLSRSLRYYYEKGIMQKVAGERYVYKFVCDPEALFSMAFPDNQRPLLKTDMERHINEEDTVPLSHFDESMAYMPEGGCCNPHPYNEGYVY
Experimental: as §1
Experiments were done as described above in FIG. 1.1a) except that ERG plasmid was replaced by ETV1 plasmid.

[5] = system: VCaP cells; experiment: Matrigel invasion assay, VCaP; type: cell-based; details: 48 hours
Experimental: as §2

[6] = system: EZH2, c-Myc and ERG expression in VCaP cells; experiment: Expression of EZH2, c-Myc and ERG in VCaP cells; type: cell-based; details: 10 μM, 72 hours
Experimental: VCaP cells were exposed to DMSO vehicle control, 648, 698 and 891 at 10 μM for 72 hours in DMEM medium plus 10% FBS or phenol red-free DMEM medium plus 10% charcoal-stripped FBS (CS-FBS).

[7] = molecular target: T3, mouse STING (mSTING) (Mus musculus, UniProt Q3TBT3); experiment: mSTING ISRE-luc reporter assay in 293T cells; type: cell-based; details: 24 hours
T3 construct: expressed in transfected cells; host or cells: 293T
T3 sequence (Q3TBT3 1-378): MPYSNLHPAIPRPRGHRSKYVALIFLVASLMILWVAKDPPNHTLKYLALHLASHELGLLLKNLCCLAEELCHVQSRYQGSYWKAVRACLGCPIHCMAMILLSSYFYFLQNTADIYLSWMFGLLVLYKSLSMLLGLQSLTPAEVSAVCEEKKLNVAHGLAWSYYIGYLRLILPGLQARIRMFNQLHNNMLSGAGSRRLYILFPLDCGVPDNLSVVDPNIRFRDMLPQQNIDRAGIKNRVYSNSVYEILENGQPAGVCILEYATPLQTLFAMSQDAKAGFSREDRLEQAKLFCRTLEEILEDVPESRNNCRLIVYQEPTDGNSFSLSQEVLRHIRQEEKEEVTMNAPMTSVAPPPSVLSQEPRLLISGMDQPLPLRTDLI
Experimental: ISRE-luc (reporter), pRL-TK (internal control) and mSTING-expressing plasmids were transiently transfected into 293T cells. Cells were exposed to DMSO vehicle control or compounds for 24 hours. Experiments were done in triplicate.

[8] = molecular target: T4, human GATA2 (Homo sapiens, UniProt P23769); experiment: GATA2-dependent reporter assay in IHH cells; type: cell-based; details: GATA-Luc reporter, 48 h
T4 construct: expressed in transfected cells; host or cells: IHH
T4 sequence (P23769 1-480): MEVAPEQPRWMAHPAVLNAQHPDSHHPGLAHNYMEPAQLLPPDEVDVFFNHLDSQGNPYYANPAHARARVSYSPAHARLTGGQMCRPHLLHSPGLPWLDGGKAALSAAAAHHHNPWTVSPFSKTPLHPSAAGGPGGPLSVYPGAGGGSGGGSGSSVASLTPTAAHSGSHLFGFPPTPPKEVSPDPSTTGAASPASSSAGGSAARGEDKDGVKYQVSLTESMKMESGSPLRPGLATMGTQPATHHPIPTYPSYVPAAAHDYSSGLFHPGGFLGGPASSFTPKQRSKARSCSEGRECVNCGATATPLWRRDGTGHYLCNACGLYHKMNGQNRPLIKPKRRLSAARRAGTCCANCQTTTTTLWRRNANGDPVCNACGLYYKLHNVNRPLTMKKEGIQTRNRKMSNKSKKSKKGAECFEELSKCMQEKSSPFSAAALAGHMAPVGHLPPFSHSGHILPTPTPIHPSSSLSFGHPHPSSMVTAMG
Experimental: K7174 is a known GATA2 inhibitor. The IHH cells were transiently transfected with empty vector (for the NT) or human GATA2-expressing plasmid as well as pRL-TK (internal control) and GATA-Luc reporter plasmids. Cells were exposed to DMSO vehicle or compounds for 48 h. Experiments were in triplicate.

[9] = molecular target: T5, human GATA3 (Homo sapiens, UniProt P23771); experiment: GATA3-dependent reporter assay in IHH cells; type: cell-based; details: 48 hours
T5 construct: expressed in transfected cells; host or cells: IHH
Experimental: The IHH cells were transiently transfected with empty vector (for the NT) or human GATA3-expressing plasmid as well as pRL-TK (internal control) and GATA-Luc reporter plasmids. Cells were exposed to DMSO vehicle or compounds for 48 hours. Experiments were done in triplicate.

[10] = molecular target: T6, human STING (hSTING) (Homo sapiens, UniProt Q86WV6); experiment: hSTING ISRE-luc reporter assay in 293T cells; type: cell-based; details: 24 hours
T6 construct: expressed in transfected cells; host or cells: 293T
Experimental: ISRE-luc (reporter), pRL-TK (internal control) and hSTING-expressing plasmids were transiently transfected into 293T cells. Cells were exposed to DMSO vehicle control or compounds for 24 hours. Experiments were done in triplicate.

[11] = molecular target: human STING (Homo sapiens, UniProt Q86WV6); experiment: SPR analysis on amine-coupled human STING; type: binding; details: 0-50 μM, 2-fold dilution series
[12] = molecular target: T7, recombinant protein of human GATA2 (Homo sapiens, UniProt P23769); experiment: SPR analysis on amine-coupled GATA2; type: binding; details: 50 μM each
T7 sequence (P23769 1-480): T4 sequence (P23769 1-480)
From the text: In embodiments of the invention, the androgen-bound AR is regressing GATA2 expression and inhibition of AR via castration or use of antiandrogen releases such expression. […] Overexpression of GATA2 confers resistance to antiandrogen bicalutamide (Bic) (FIG. 2.9). Compound 673 is effective against the LNCaP stably transfected with GATA2-expressing plasmid (referred to as LNCaP-GATA2 cells) (FIG. 2.8).

[13] = molecular target: T8, ESE-1 (Homo sapiens, UniProt P78545); experiment: ESE-1 dependent reporter assay in HEK293 cells; type: cell-based; details: 48 hours
T8 construct: expressed in transfected cells; host or cells: HEK293
T8 sequence (P78545 1-371): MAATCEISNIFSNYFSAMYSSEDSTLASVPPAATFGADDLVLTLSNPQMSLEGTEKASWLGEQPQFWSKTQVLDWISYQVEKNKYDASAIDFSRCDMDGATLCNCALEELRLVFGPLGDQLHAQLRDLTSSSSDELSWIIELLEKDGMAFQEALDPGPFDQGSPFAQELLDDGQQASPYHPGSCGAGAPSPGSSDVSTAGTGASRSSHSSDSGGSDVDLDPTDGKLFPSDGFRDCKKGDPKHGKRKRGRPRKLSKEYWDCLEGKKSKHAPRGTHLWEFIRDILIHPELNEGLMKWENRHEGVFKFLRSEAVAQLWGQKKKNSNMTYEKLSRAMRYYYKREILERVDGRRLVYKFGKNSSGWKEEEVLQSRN
Experimental: as §1
Experiments were done as described above in FIG. 1.1a) except that ERG plasmid was replaced by ESE-1 plasmid.

[14] = molecular target: T9, ETS-2 (Homo sapiens, UniProt P15036); experiment: ETS-2 dependent reporter assay in HEK293 cells; type: cell-based; details: 48 hours
T9 construct: expressed in transfected cells; host or cells: HEK293
Experimental: as §1
Experiments were done as described above in FIG. 1.1a) except that ERG plasmid was replaced by ETS-2 plasmid.

[15] = system: LNCaP-pcDNA and LNCaP-GATA2 cells; experiment: MTT assay in LNCaP-pcDNA and LNCaP-GATA2 cells; type: cell-based; details: 72 hours
Experimental: Cells were exposed to DMSO vehicle or compounds for 72 hours. Vial cells were evaluated by MTT assays. Experiments were done in triplicate.

T5 sequence (P23771 whole entry): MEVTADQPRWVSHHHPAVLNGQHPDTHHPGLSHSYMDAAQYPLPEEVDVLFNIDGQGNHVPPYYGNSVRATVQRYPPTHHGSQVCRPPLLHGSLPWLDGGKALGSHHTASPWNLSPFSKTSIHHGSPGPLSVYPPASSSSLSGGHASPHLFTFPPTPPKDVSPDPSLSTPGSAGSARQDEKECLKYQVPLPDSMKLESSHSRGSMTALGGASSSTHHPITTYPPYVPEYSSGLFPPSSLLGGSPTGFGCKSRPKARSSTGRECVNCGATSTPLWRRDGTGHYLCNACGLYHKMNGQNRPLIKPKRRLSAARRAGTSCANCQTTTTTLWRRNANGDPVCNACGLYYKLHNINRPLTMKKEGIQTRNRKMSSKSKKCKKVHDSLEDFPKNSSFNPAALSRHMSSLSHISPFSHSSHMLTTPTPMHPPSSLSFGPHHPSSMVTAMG
human STING, sequence (Q86WV6 whole entry H232R): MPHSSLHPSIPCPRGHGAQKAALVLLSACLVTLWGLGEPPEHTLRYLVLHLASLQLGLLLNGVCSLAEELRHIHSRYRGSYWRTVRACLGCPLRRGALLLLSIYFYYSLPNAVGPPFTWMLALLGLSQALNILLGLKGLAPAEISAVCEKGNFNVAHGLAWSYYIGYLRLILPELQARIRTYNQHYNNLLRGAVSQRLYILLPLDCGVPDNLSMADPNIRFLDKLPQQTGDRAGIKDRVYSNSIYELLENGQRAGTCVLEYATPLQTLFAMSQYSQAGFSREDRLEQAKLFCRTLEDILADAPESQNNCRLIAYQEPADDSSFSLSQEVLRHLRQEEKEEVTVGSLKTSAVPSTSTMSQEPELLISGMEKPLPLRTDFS
T9 sequence (P15036 whole entry, species assumed): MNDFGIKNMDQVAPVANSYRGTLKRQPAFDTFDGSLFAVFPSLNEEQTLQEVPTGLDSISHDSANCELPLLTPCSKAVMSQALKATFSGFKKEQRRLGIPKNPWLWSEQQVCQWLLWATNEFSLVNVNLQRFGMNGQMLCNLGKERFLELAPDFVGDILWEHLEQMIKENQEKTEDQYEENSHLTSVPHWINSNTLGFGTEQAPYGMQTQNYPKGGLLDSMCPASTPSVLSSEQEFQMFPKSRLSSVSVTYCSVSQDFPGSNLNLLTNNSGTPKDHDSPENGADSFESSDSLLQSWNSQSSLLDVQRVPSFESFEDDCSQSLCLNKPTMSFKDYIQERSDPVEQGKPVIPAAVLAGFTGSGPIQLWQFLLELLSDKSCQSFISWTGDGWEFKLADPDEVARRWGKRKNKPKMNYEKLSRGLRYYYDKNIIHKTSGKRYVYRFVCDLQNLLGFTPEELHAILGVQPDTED
T6 sequence (Q86WV6 whole entry H232R): as the sequence (Q86WV6 whole entry H232R) above

SMILES: Oc1cccc(-c2nc(Cc3c[nH]c4ccccc34)oc2-c2cccc(O)c2)c1 [Compound 648]
- ERG inhibition in ERG-dependent reporter assay [1]: potent inhibitor of ERG; also recorded: ERG inhibitors
- inhibition of invasion of C4-2B cells [2]: potently inhibits invasion
- direct binding with human ERG protein (SPR) ([3]; 50 μM injection, amine-coupled ERG): direct binding
- KD for ERG, steady-state affinity model (SPR) ([3]; titrated at 0-50 μM, preliminary data): low micromolar
- ETV1 inhibition in ETV1-dependent reporter assay [4]: ETV1 inhibitors
- inhibition of invasion of VCaP cells [5]: potently inhibits invasion
- inhibition of expression of EZH2, c-Myc and ERG [6]: inhibit expression of EZH2, c-Myc and ERG

SMILES: c1coc(-c2nc(CCCc3c[nH]c4ccccc34)[nH]c2-c2ccco2)c1 [Compound 817]
- activation of mSTING in ISRE-luc reporter assay [7]: activate mouse STING (mSTING)
- GATA2 inhibition in GATA2-dependent reporter assay [8]: GATA2 inhibitors
- activity against GATA3 in GATA3-dependent reporter assay ([9]; 10 μM): inactive against GATA3
- activity against GATA3 in GATA3-dependent reporter assay ([9]; compounds at 5 μM): inactive against GATA3
- activation of hSTING in ISRE-luc reporter assay [10]: activate hSTING
- binding to amine-coupled human STING (SPR) [11]: Specific, dose-dependent binding; also recorded: Direct binding
- binding to amine-coupled GATA2 (SPR) [12]: Direct binding; also recorded: Specific binding

SMILES: N#CC(NC(=O)c1ccccc1)SCc1ccccc1 (stereo not drawn) [Compound V154]
- ERG inhibition in ERG-dependent reporter assay [1]: ERG inhibitors
- ESE-1 inhibition in ESE-1 dependent reporter assay [13]: ESE-1 inhibitors
- ETS-2 inhibition in ETS-2 dependent reporter assay [14]: ETS-2 inhibitor

SMILES: CC(O)(CS(=O)(=O)c1ccc(F)cc1)C(=O)Nc1ccc(C#N)c(C(F)(F)F)c1 (stereo not drawn) [bicalutamide, reference compound]
- cytotoxicity in LNCaP-GATA2 compared with LNCaP-pcDNA cells (MTT) [15]: less active in LNCaP-GATA2 cells
